Test results from patent US20110226998A1, “ELECTROWETTING ELEMENTS” (LIQUAVISTA B.V., priority 2008, published 2011).

assay: Photo-bleaching test according to standard IEC 60068-2-9, Atlas Suntest CPS/XLS+ instrument, reflectance measurement; format: physicochemical; conditions: sample thickness 4 micrometres, 1 centimetre diameter, 0.1M in decane; exposure 0, 4, 24, 48, 120 and 240 hours
Source text: Exemplary dye compounds will now be described below, including a schematic illustration of each dye. Whilst exemplary anthraquinone dyes are given below, it is to be appreciated that corresponding napthoquinone dyes are envisaged also within the scope of the present invention, namely including napthoquinones having the same molecular structure of the right hand (as illustrated herein) benzene ring as the molecular structure of the right hand (as illustrated herein) benzene ring of the anthrquinone examples described below. The stereochemistry of each dye is not limited to that shown; it is to be appreciated that molecular structures of the dyes having different stereochemistry are within the scope of the dyes of the invention. […] For each of the exemplary dyes, data is given as evidence of their reduced photo-bleaching properties. […] The periods of time given for testing are scalable to equate to a number of weeks of exposing the tested dyes to solar radiation. For example, the period of exposure of 240 hours given below approximately equates to continuously exposing the dyes to solar radiation in London, UK, for 14 weeks, taking an average yearly solar radiation quantity as 1,000 kWh/m^2/year. In reality, taking into account that a display application is not used or is used inside for a major part of the time, this equates to a few years of practical lifetime.
(§1) This dye is cyan in colour. Upon testing, a sample of the dye with a thickness of 4 micrometres, a circular area of 1 centimetre diameter and a concentration of 0.1M in decane, was measured for reflectance of radiation with wavelengths from 380 to 750 nano-metres, at 5 nano-metre increments. This test was run separately for different time periods, namely for 0, 4, 24, 48, 120 and 240 hours. The reflectance of the dye for the range of wavelengths tested was approximately the same for each different testing time period.
as §1, with “purple” for “cyan”, “48, and” for “48,”, “120” for “120 and 240”
as §1, with “magenta” for “cyan”
as §1, with “blue” for “cyan”, “48, and” for “48,”, “120” for “120 and 240”
as §1, with “blue/cyan” for “cyan”, “48, and” for “48,”, “120” for “120 and 240”

photo-bleaching (reflectance of radiation, 380 to 750 nano-metres, compared over testing time periods), does not exhibit photo-bleaching:
CCCCC(CC)CNc1ccc(NCC(CC)CCCC)c2c1C(=O)c1ccccc1C2=O (stereo not drawn) [Example 1]
CCCCC(CC)Cc1cc(NC2CCCCC2)c2c(c1NC1CCCCC1)C(=O)c1ccccc1C2=O (stereo not drawn) [Example 3]
CCCCCCCc1cc(NC2CCCCC2)c2c(c1NC1CCCCC1)C(=O)c1ccccc1C2=O [Example 4]

same assay, conditions: sample thickness 4 micrometres, 1 centimetre diameter, 0.1M in decane; exposure 0, 4, 24, 48, and 120 hours

photo-bleaching (reflectance of radiation, 380 to 750 nano-metres, compared over testing time periods), does not exhibit photo-bleaching:
CCCCC(CC)CNc1cc(CC(CC)CCCC)c(O)c2c1C(=O)c1ccccc1C2=O (stereo not drawn) [Example 2]
CCCCC(CC)CNc1cc(CC(CC)CCCC)c(N)c2c1C(=O)c1ccccc1C2=O (stereo not drawn) [Example 5]
CCCCC(CC)CNc1cc2c(c3c1C(=O)c1ccccc1C3=O)NC1CC(C)CCC1C2(C)C (stereo not drawn) [Example 6]
